From ChEMBL document CHEMBL2396545, “Quinoline drug-heme interactions and implications for antimalarial cytostatic versus cytocidal activities” (J Med Chem, 2013)
pIC50: −log10 of the molar value.

Assays:
[1] = Inhibition of hemozoin formation in 12.9 M acetate buffer at pH 4.5 at 60 degC after 1 hr by microtiter-based high-throughput assay; format: functional
[2] = Inhibition of hemozoin formation in 0.5 M acetate buffer at pH 4.8 after 12 hrs by microtiter plate-based high-throughput assay in presence of trophozoite lysate; format: functional
[3] = Inhibition of hemozoin formation in acetonitrile trophozoite extract by microtiter plate-based high-throughput assay; format: functional
[4] = Inhibition of hemozoin formation in 8 M acetate buffer at pH 5 after 18 hrs by microtiter plate-based high-throughput assay; format: functional
[5] = Inhibition of hemozoin formation in 0.5 M acetate buffer at pH 4.8 after 24 hrs by microtiter plate-based high-throughput assay; format: functional
[6] = Inhibition of hemozoin formation in 9.7 M acetate buffer at pH 4.8 at 60 degC after 2 hrs by microtiter-based high-throughput assay; format: functional
[7] = Inhibition of hemozoin formation in parasite digestive vacuole extract by microtiter plate-based high-throughput assay; format: functional
[8] = Inhibition of hemozoin formation in 0.5 M acetate buffer at pH 4.8 after 12 hrs by tube-based high-throughput assay; format: functional
[9] = Inhibition of hemozoin formation by microtiter plate-based high-throughput assay; format: functional
[10] = Inhibition of hemozoin formation in 0.5 M acetate buffer at pH 4.8 after 16 hrs by tube-based high-throughput assay in presence of 0.002 mg/mL phosphatidylcholine; format: functional
[11] = Inhibition of hemozoin formation in 0.1 M acetate buffer at pH 4.8 after 12 hrs by tube-based high-throughput assay in presence of Plasmodium yoelii homogenate; format: functional, tissue-based

Work on `CCN(CC)Cc1cc(Nc2ccnc3cc(Cl)ccc23)ccc1O` yielded a pIC50 [1] of 5.84, a pIC50 [2] of 3.69 and a pIC50 [3] of 4.14. For the same molecule, the pIC50 [4] was 6.07, the pIC50 [5] was 4.22 and the pIC50 [6] was 4.17. The pIC50 [7] was 4.22, the pIC50 [8] was 4.82 and the pIC50 [9] was 4.22.
For `CCN(CC)CCCC(C)Nc1ccnc2cc(Cl)ccc12` (configuration not stated) [CHLOROQUINE], the pIC50 [1] was 5.72, the pIC50 [2] was 3.40 and the pIC50 [10] was 3.93. For the same molecule, the pIC50 [4] was 5.79, the pIC50 [5] was 4.35 and the pIC50 [11] was 4.36. For the same molecule, the pIC50 [6] was 3.43, the pIC50 [7] was 4.30 and the pIC50 [8] was 4.61. It also gave a pIC50 [9] of 4.35.
`OC(c1cc(C(F)(F)F)nc2c(C(F)(F)F)cccc12)C1CCCCN1` (configuration not stated) [MEFLOQUINE] showed a pIC50 [1] of 5.54, a pIC50 [2] of 3.70 and a pIC50 [3] of 3.85. For the same molecule, the pIC50 [4] was 5.21, the pIC50 [5] was 3.92 and the pIC50 [6] was 3.32. For the same molecule, the pIC50 [7] was 4.10, the pIC50 [8] was 4.33 and the pIC50 [9] was 3.92.
In the case of `C=C[C@H]1CN2CC[C@H]1C[C@H]2[C@H](O)c1ccnc2ccc(OC)cc12` [QUININE], the pIC50 [1] was 5.46, the pIC50 [2] was 3.37 and the pIC50 [10] was 3.70. The pIC50 [3] was 4.11, the pIC50 [5] was 3.80 and the pIC50 [11] was 4.38. The pIC50 [7] was 4.00, the pIC50 [8] was 4.19 and the pIC50 [9] was 3.80.
